In brackets after ≈: the same amount, converted by molar mass.
Experiments:
Format in all cases: cell-based
[1] = system: fresh morning saliva; assay: In-vitro test to reduce bad breath (medium inoculated with saliva, incubated, sniffed by panel)
Experimental: A sterile liquid medium inoculated with fresh morning saliva is incubated for a few days at 37° C. and then sniffed by a panel of testers.
As a control for the tests, Triclosan® (5-chloro-2-(2,4-dichlorophenoxy)phenol) was added to inoculated samples in a concentration of 0.05%.

[2] = system: Fusobacterium nucleatum; assay: Minimum inhibiting concentration, serial-dilution test
Experimental: (§1) The minimum inhibiting concentration (MIC) of isoeugenol methyl ether was determined in a serial-dilution test against various bacteria.

[3] = system: Prevotella intermedia; assay: as above
Experimental: as §1

[4] = system: Porphyromonas gingivalis; assay: as above
Experimental: as §1

[5] = system: Streptococcus mutans; assay: as above
Experimental: as §1

[6] = system: Escherichia coli; assay: as above
Experimental: as §1

[7] = system: Veilonella parvula; assay: as above
Experimental: as §1

[8] = system: Staphylococcus aureus; assay: as above
Experimental: as §1

[9] = system: Pseudomonas aeruginosa; assay: as above
Experimental: as §1

[10] = system: total number of bacteria in the samples of saliva; assay: Total number of bacteria in samples of saliva; conditions: concentration of 1000 ppm

In the case of Oc1cc(Cl)ccc1Oc1ccc(Cl)cc1Cl [Triclosan®, 5-chloro-2-(2,4-dichlorophenoxy)phenol, reference compound], the “odour after the incubation period” value ([1]; 0.05% added to inoculated samples) is reported as “the same faint odour of medium as the uninoculated samples”.

CC=Cc1ccc(OC)c(OC)c1 (racemic) [isoeugenol methyl ether, 1,2-dimethoxy-4-propenyl benzene] was tested, and the MIC [2] was 250 µg/mL (≈ 1400 µM), the Type ([2]; 250 ppm) was “bacteriostatic action” and the MIC [3] was 500 µg/mL (≈ 2810 µM). The Type ([3]; 500 ppm) was “bactericidal action”, the MIC [4] was 500 µg/mL (≈ 2810 µM) and the Type of action ([4]; 500 ppm) was “effectiveness”. For the same compound, the MIC [5] was over 1000 µg/mL, the Type [5] was “No action up to 1000 ppm” and the MIC [6] was over 1000 µg/mL. For the same compound, the Type [6] was “No action up to 1000 ppm”, the MIC [7] was 250 µg/mL (≈ 1400 µM) and the Type ([7]; Veilonella parvula, 250 ppm) was “bacteriostatic action”. For the same compound, the MIC [8] was over 1000 µg/mL, the Type [8] was “No action up to 1000 ppm” and the MIC [9] was over 1000 µg/mL. For the same compound, the Type [9] was “No action up to 1000 ppm”, the “reduction of the total number of bacteria in saliva samples” value [10] was “no significant reduction” and the “odour after the incubation period” value ([1]; 0.01% added to inoculated samples) was “no odour”. The “odour at sensory assessment” value ([1]; 0.05% added to the inoculated medium just one hour before the sensory assessment) was “an unpleasant mixed odour of bad breath and a faint isoeugenol methyl ether note”, the “odour after the incubation period” value ([1]; concentrations of significantly less than 0.01%) was “a changed characteristic odour or a mixed odour was discernible in some cases” and the minimum effective concentration ([1]; no odour after incubation of inoculated samples) was 0.01%.
